According to publication PMC9582194, “The effect of helix-inducing constraints and downsizing upon a transcription block survival-derived functional cJun antagonist” (Cell Reports. Physical Science, 2022):
“And” between values parts separate entries of the source, which are not always exact repeats. Equal values may be shown once.

Assays:
[1] = Peptide fraction helicity by CD at 222 nm, peptide-only samples; format: physicochemical; details: CD signal at 222 nm of peptide-only samples; pH 7.4 phosphate/KF/TCEP buffer; duplicate experiments
How it was run: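 Fraction helicity of each peptide alone was derived from the CD signal at 222 nm. Separately, thermal denaturation of heterodimers with a 60-residue cJun bZIP construct was used to obtain Tm.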

cJun [2] = target: T1, cJun (Homo sapiens, UniProt P05412); assay: Isothermal titration calorimetry (ITC) with cJun; format: binding; details: 25 °C, average of two experiments ± one SD
T1 construct: The same 60 amino acid cJun construct, encompassing the entire bZIP domain, was used for all experiments
Excerpt: A selection of peptides from this work were investigated by isothermal titration calorimetry (ITC) to quantify the thermodynamic parameters of their interaction with target cJun (Figure 4 and S6; Table 2). The determined equilibrium binding constant (KD) values follow from the CD data above and can be rationalized in terms of the truncation or lactamization they represent. […] All interactions investigated were dominated by the enthalpic component, with a smaller unfavorable entropic contribution, other than for HW8/cJun, which is the weakest interaction. The unfavorable entropic component was largest for the HW30/cJun interaction and smallest for HW23/cJun. This indicates the introduction of lactams produces a more unfavorable entropic component, perhaps a surprising result as helix-inducing lactamization is typically considered to increase affinity through entropic pre-organization. However, the larger increase in the favorable enthalpic component produces an increase in binding affinity due to lactamization. This is likely to be caused by a combination of enhanced intermolecular contacts and ordering that are opposed by unfavorable desolvation effects.
Two-μL injections of antagonist peptide at 25–200 μM were injected into the cell containing cJun at 2.5–20 μM at 25°C. Microcal Control and Analysis software were used to record and analyze the heat change upon addition and fit the data to a one-site binding model to extract the enthalpy change of binding (ΔH) and the KD, from which the free energy change of binding (ΔG) and the entropy change of binding (ΔS) were calculated.[40] Control experiments involved the injection of the antagonist peptide sample into the cell containing ITC buffer alone to determine the heat of dilution, which was subtracted. Thermodynamic parameters are presented as an average of two independent experiments with errors given as one SD.

TRE DNA = assay: CD of TRE DNA with antagonist peptide alone (Figure S3); format: binding; details: TRE DNA (5 μM) + HingeW (50 μM), CD 260-320 nm
Protocol: The precise nature of the interaction between the cJun DBD and the rationally designed acidic domain of HW1 is unknown. HW1 was, therefore, iteratively truncated from the N terminus (HW2–6) to investigate the effect on cJun binding and cJun/TRE DNA antagonism (Table 1). Peptide fraction helicity (fH) was determined by quantifying the circular dichroism (CD) signal at 222 nm of peptide-only samples (Figure S1). Thermal denaturation experiments were then used to determine the melting temperature (Tm) of peptide-cJun heterodimers, which serves as an approximate measure of target engagement. CD was also used to investigate the functional activity of peptides in antagonizing the cJun/TRE DNA interaction. […] This provides a clear and direct measurement of the proportion of DNA bound to cJun. As antagonist peptide concentration was increased, the peak shifted to overlay with that of free TRE-DNA (Figure S4). For each peptide, the data were fit to a Hill equation to determine half-maximal inhibitory concentration (IC50) values, specific to these assay conditions, providing a clear comparative measure of antagonism. The same 60 amino acid cJun construct, encompassing the entire bZIP domain, was used for all experiments regardless of antagonist peptide length. […]
wavelength range, so the CD signal observed occurs due to the DNA structure, which is not perturbed upon addition of HingeW. […]

Stability in human serum = details: human serum (Merck), 75 μL of 600 μM peptide stock added to 1425 μL serum, 37 °C, 3-day endpoint; acetonitrile:water precipitation; LC-MS, sum of two largest charge-state peaks; average of three repeats
Protocol: The supernatant was analyzed by LC-MS, and the peptide was quantified as the sum of the peaks with the two largest intensities (HW1, cFos: 9+, 10+; HW8, HW29, HW30: 3+, 4+).

cJun [3] = target: T1, cJun; assay: CD thermal denaturation of peptide-cJun heterodimers (Tm); format: binding; details: CD ellipticity at 222 nm, 1-90 °C; peptide (5 μM)/cJun (5 μM); 20 mM potassium phosphate, 150 mM potassium fluoride, 2 mM TCEP pH 7.4; two-state fit; duplicate experiments, ± one SD
How it was run: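 Peptide/cJun heterodimers (each 5 μM, 60-residue cJun bZIP construct) melted while CD was monitored to give Tm. For antagonism, peptides titrated into pre-incubated cJun (20 μM) with TRE DNA (5 μM); shift of a DNA-specific CD peak toward free TRE gave fraction bound, Hill fit gave IC50; triplicates.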

[4] = CD thermal denaturation of peptide alone, 222 nm
Protocol: The LZ domain of HW1 has four point mutations from its parent sequence, FosW, which is known to homodimerize.[24]
Protein/DNA samples were suspended in 20 mM potassium phosphate, 150 mM potassium fluoride, and 2 mM TCEP (pH 7.4). cJun was added to DNA before addition of antagonist peptide, and these samples were equilibrated for 30 min before measurement.

T1 sequence (P05412 252-315 limits assumed): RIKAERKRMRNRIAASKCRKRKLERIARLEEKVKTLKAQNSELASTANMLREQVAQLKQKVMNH

| ΔG (cJun [2]; pH 7.4, calculated from KD) [kcal/mol] | -TΔS (cJun [2]; pH 7.4, calculated from ΔH and KD) [kcal/mol] | Substance | fH, peptide fraction helicity [1] | interaction with TRE DNA (in words) (TRE DNA) | peptide remaining in human serum, peak intensity relative to starting value (Stability in human serum) | Tm of peptide-cJun heterodimer (cJun [3]) [°C] | Tm of peptide alone [4] [°C] |
| --- | --- | --- | --- | --- | --- | --- | --- |
| -13.45 ± 0.179 | 17.55 ± 0.884 | MASLEQRAEELARENEELEKEAEELVVEEDVLEEEIEQLEERNYALRKEIEDLQKQLEKLGAPHHHHHH [HW1] | ~27% and 27.2% | does not interact | fully degraded |  |  |
|  |  | Ac-LVVEEDVLEEEIEQLEERNYALRKEIEDLQKQLEKL-NH2 [HW5] | 46.7% |  |  | 62.8 ± 1.0 | 41 |
